Like-named read-outs stand apart in the source and are kept apart here. One block for each molecule: values may come before it.
Assays:
CB1 receptor [1] = target: T1, CB1 receptor (Mus musculus, UniProt P47746); assay: [3H]CP-55,940 radioligand displacement assay; assay type: binding
T1 construct: crude membranes from mouse brain for CB1 receptor; from tissue; host or cells: mouse brain membranes (crude / P2)
Method: Radioligand binding assays. BNS-002 binding to CB1 receptor was assessed in competition displacement assays using [^3H]CP-55,940 as the radioligand and crude membranes from mouse brain for CB1 receptor. All data were in triplicates with Ki values determined from three independent experiments.
Radioligand binding assay. Binding of the tested compounds to CB1 receptor was assessed in competition displacement assays using [3H]CP-55,940 as the radioligand and crude membranes from mouse brain for CB1 receptor. Membranes were extracted according to an established protocol previously described by Catani V. M. and Gasperi V.. Compounds were tested at different concentrations (10-5M-10-11M) and their ability to displace [3H]CP-55,940 was evaluated. Membranes with bound [3H]CP-55,940 were separated and washed from free ligand by vacuum filtration and bound [3H]CP-55,940 radioactivity was measured using a […]. All data were in triplicates with Ki values extracted by nonlinear regression analysis using GraphPad Prism software.

mice [2] = assay: Centrally-mediated hyperactivity / activity profile; assay type: in vivo, mouse; conditions: for activity profile / hyperactivity vs vehicle group: single dose IP: rimonabant 10, TMP 35, EST 40, IDB 20 mg/kg
Method: (§1) Locomotor activity. Locomotor activity was quantified by the number of disruptions of infrared XYZ beam arrays with a beam spacing of 0.25 cm in the Promethion High-Definition Behavioral Phenotyping System (Sable Instruments, Inc., Las Vegas, NV, USA).
as §1, with “Centrally-mediated hyperactivity profile. […] Mice were placed in metabolic cages and their activity profile was evaluated.” for “Locomotor activity.”

[3] = test system: mice with diet-induced obesity (DIO); assay: HFD-induced hepatic steatosis and liver injury; assay type: in vivo, mouse; conditions: for HFD-induced hepatic steatosis (fat vacuoles in the liver): DIO mice, 10 mg/kg/d ip
Method: (§2) Blood and urine biochemistry. Serum and urine levels of creatinine as well as serum levels of ALT, AST, ALP, HDL, LDL, TG and cholesterol were determined by using the Cobas C-111 chemistry analyzer (Roche, Switzerland). Creatinine clearance was calculated using urine and serum creatinine levels (CCr mL/h=Urine creatinine mg/dL×Urine volume/Serum creatinine mg/dL×24 hrs). Serum insulin levels were measured by an ELISA kit (Crystal Chem, Inc., Downers Grove, IL, USA). Fasting blood glucose was measured using the Elite glucometer (Bayer, Pittsburgh, PA).
Histopathological Analyses. 5 μm paraffin-embedded liver sections from 5 animals per group were stained with hematoxylin-eosin staining. Liver images were captured with a Zeiss AxioCam ICc5 color camera mounted on a Zeiss Axio Scope.A1 light microscope and taken from 10 random 40× fields of each animal.

CB1 receptor [4] = target: T1, CB1 receptor; assay: [35S]GTPγS binding in mouse brain membranes; assay type: biochemical
Method: [^35S]GTPγS binding. Mouse brains were dissected and P2 membranes prepared and resuspended at ˜6 μg protein/μL in 1 ml assay buffer (50 mM Tris HCl, 9 mM MgCl2, 0.2 mM EGTA, 150 mM NaCl; pH 7.4). […] Briefly, membranes (10 μg protein) were incubated in assay buffer containing 100 μM GDP, 0.05 nM [^35S]GTPγS, test compounds at 1 nM-1 μM, and 1.4 mg/mL fatty acid-free BSA in siliconized glass tubes. Bound ligand was separated from free by vacuum filtration. Non-specific binding was determined using 10 μM GTPS. Basal binding was assayed in the absence of the ligand and in the presence of GDP.

[5] = test system: mice with diet-induced obesity (DIO); assay: Serum lipids (dyslipidemia) in DIO mice; assay type: in vivo, mouse; conditions: 20 mg/kg/day for 20 days
Method: as §2

[6] = test system: mice with diet-induced obesity (DIO); assay: Multi-parameter metabolic assessment (indirect calorimetry) in DIO mice; assay type: in vivo, mouse; conditions: for HFD-induced reduction in VO2 / HFD-induced reduction in fat oxidation / HFD-induced reduction in total energy expenditure: DIO mice, 10 mg/kg/d ip
Method: Multi-parameter metabolic assessment. Metabolic profile of the mice was assessed by using the Promethion High-Definition Behavioral Phenotyping System (Sable Instruments, Inc., Las Vegas, NV, USA). Data acquisition and instrument control were performed using MetaScreen software version 2.2.18.0, and the obtained raw data were processed using ExpeData version 1.8.4 using an analysis script detailing all aspects of data transformation. Mice with free access to food and water were subjected to a standard 12 h light/12 h dark cycle, which consisted of a 48 h acclimation period followed by 24 h of sampling. Respiratory gases were measured by using the GA-3 gas analyzer (Sable Systems, Inc., Las Vegas, NV, USA) using a pull-mode, negative-pressure system. Air flow was measured and controlled by FR-8 (Sable Systems, Inc., Las Vegas, NV, USA), with a set flow rate of 2000 mL/min. Water vapor was continuously measured and its dilution effect on O2 and CO2 was mathematically compensated. Effective mass was calculated by [body mass]^0.75. Fat oxidation (FO) and carbohydrate oxidation (CHO) were calculated as FO=1.69×VO2−1.69×VCO2 and CHO=4.57×VCO2−3.23×VO2 and expressed as g/d/kg^eff.Mass.

[7] = test system: mice with diet-induced obesity (DIO); assay: Body weight, adiposity and food intake in diet-induced obese mice; assay type: in vivo, mouse
From the text: Mice. The experimental protocol used was approved by the Institutional Animal Care and Use Committee of the Hebrew University, which is an AAALAC International accredited institute. Male 6 week old C57Bl/6J mice were obtained from Harlan Laboratories. Mice were maintained under a 12-h light/dark cycle and fed ad libitum. To generate diet-induced obesity, C57Bl6/J mice were fed either a high-fat diet (HFD) (60% of calories from fat, 20% from protein, and 20% from carbohydrates; Research Diet, D12492) or a standard laboratory diet (STD, 14% fat, 24% protein, 62% carbohydrates; NIH-31 rodent diet) for 14 weeks.
Age-matched control mice on STD received vehicle daily. Body weight and food intake were monitored daily. Total body fat and lean masses were determined by EchoMRI-100H™ (Echo Medical Systems LLC, Houston, TX, USA). 24 h urine was collected one week before euthanasia using mouse metabolic cages (CCS2000 Chiller System, Hatteras Instruments, NC, USA). At weeks 20 mice were euthanized by a cervical dislocation under anesthesia, the kidneys, brain, liver, fat pads, and muscles were removed and weighed, and samples were either snap-frozen or fixed in buffered 4% formalin Trunk blood was collected for determining the biochemical parameters.

[8] = test system: mice with diet-induced obesity (DIO); assay: Glycemic control (ipGTT, ipIST, glucose, insulin) in DIO mice; assay type: in vivo, mouse; conditions: for HFD-induced glucose intolerance / HFD-induced hyperglycemia: DIO mice, 10 mg/kg/d ip
Method: Glucose tolerance (ipGTT) test and insulin sensitivity tests (ipIST). Mice that fasted overnight were injected with glucose (1.5 g/kg, ip), followed by a tail blood collection at 0, 15, 30, 45, 60, 90, and 120 minutes. Blood glucose levels were determined using the Elite glucometer (Bayer, Pittsburgh, PA). On the following day, mice were fasted for 6 h before receiving insulin (0.75 U/kg, i.p.; Eli Lilly, […], USA or Actrapid® vial, novo nordisk A/S, Denmark), and blood glucose levels were determined at the same intervals as above.
as §2

[9] = test system: mice with diet-induced obesity (DIO); assay: HFD-induced kidney hyperfiltration; assay type: in vivo, mouse
Method: as §2

mice [10] = assay: Antagonizing cannabinoid (HU-210)-induced hypomotility; assay type: in vivo, mouse; conditions: for increase in immobility induced by HU-210: HU-210 30 μg/kg ip, rimonabant 10 mg/kg ip, BNS-002 10, 20 and 50 mg/kg
Method: as §1
Antagonizing cannabinoid-induced hypomotility. The ability of the different compounds to inhibit the hypomotility induced by HU210 (cannabinoid agonist) was evaluated. […] A half an hour thereafter, mice received a single dose of HU210 (30 ug/kg, IP) and their locomotor activity was evaluated as described above.

[11] = Tissue levels of antagonists (brain penetrance); assay type: in vivo, mouse; conditions: mice, 3 and 10 mg/kg ip, 1 hour
Method: Tissue levels of antagonists. […] Blood was collected, and the mice were perfused with phosphate buffered saline for 1 min to remove drug from the intravascular space before removing the brain and liver. Drug levels in tissue homogenates and plasma were determined by using LC-MS/MS.

[12] = [3H]CP-55,940, crude membranes from mouse brain, read-out: Ki for CB1 receptor
[13] = DIO mice, 20 mg/kg/day for 20 days
[14] = mice on high-fat diet, 20 mg/kg/day for 20 days
[15] = 7 days, rimonabant 10 mg/kg/d, BNS-002 30 mg/kg ip

T1 sequence (P47746 whole entry): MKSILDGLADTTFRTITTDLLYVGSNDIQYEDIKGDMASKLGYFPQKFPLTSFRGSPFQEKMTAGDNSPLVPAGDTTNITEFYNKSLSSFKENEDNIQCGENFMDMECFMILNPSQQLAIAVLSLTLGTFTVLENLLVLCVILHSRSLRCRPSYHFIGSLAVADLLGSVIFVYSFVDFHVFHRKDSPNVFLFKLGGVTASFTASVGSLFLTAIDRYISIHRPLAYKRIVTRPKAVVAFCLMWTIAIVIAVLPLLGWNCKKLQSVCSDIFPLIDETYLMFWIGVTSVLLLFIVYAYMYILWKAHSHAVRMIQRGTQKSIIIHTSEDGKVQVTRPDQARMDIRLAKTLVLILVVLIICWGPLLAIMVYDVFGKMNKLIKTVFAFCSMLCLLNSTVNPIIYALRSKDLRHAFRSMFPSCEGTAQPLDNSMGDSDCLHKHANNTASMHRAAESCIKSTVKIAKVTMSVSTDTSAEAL

Ki (CB1 receptor [1]; [3H]CP-55,940, crude membranes from mouse brain, range of Ki values (FIGS. 12-14), read-out: Ki values varying for each substance, ranging from): 1.9 to 135 nM
Ki (CB1 receptor [1]; [12]): 256 nM
functional profile by GTPγS binding (inverse agonism) (CB1 receptor [4]): inverse agonism profile
activity profile / hyperactivity vs vehicle group (mice [2]): no significant hyperactivity
SMILES: COC1=C(OC)C(=O)C(CCCCCCCCCCOC(=O)c2nn(-c3ccc(Cl)cc3Cl)c(-c3ccc(Cl)cc3)c2C)=C(C)C1=O [IDB, 10-(4,5-dimethoxy-2-methyl-3,6-dioxocyclohexa-1,4-dien-1-yl)decyl 5-(4-chlorophenyl)-1-(2,4-dichlorophenyl)-4methyl-1H-pyrazole-3-carboxylate]
HFD-induced hepatic steatosis and liver injury ([3]; 20 mg/kg/day for 20 days): reduce
liver enzymes (AST, ALT, and ALP) ([3]; 20 mg/kg/day for 20 days): reduction
liver weight ([3]; 20 mg/kg/day for 20 days): decrease
dyslipidemia in DIO mice [5]: improve
HDL ([5]; DIO mice): reduce
HDL-to-LDL ratio ([5]; DIO mice): increase
LDL ([5]; DIO mice): reduce
total cholesterol ([5]; DIO mice): reduce
triglycerides ([5]; DIO mice): reduce
metabolic parameters (respiratory quotient, VO2, VCO2, total energy expenditure, fat oxidation, carbohydrate oxidation) ([6]; 20 mg/kg/day for 20 days, over a 24 hr period): significant changes
body weight [7, 13]: reduced
daily and total food intake [7, 13]: reduced
fat mass [7, 13]: reduced
lean mass [7, 13]: increased
fasting glucose levels [8, 14]: reduced
fed glucose levels [8, 14]: reduced
glucose tolerance [8, 14]: reduced
glycosuria [8, 14]: increases
insulin sensitivity [8, 14]: improved
HFD-induced kidney hyperfiltration ([9]; IDB, compared to the control): no effect

hypomotility induced by HU210 (mice [10]; HU210 30 ug/kg IP, rimonabant 10, TMP 35, EST 40, IDB 20 mg/kg IP): significantly blocked
increase in immobility induced by HU-210 (mice [10]): completely blocked
activity profile in mice (mice [2]; rimonabant 10 mg/kg ip, BNS-002 10, 20 and 50 mg/kg ip): marked increase
activity profile / hyperactivity vs vehicle group (mice [2]): marked increase
SMILES: Cc1c(C(=O)NN2CCCCC2)nn(-c2ccc(Cl)cc2Cl)c1-c1ccc(Cl)cc1 [rimonabant, reference compound]
HFD-induced hepatic steatosis (fat vacuoles in the liver) [3]: completely reversed
HFD-induced reduction in VO2 [6]: upregulate
HFD-induced reduction in fat oxidation [6]: upregulate
HFD-induced reduction in total energy expenditure [6]: upregulate
increased adiposity of mice on HFD ([7]; 10 mg/kg/d ip, 28 days): significantly reduced
overweight of mice on HFD ([7]; 10 mg/kg/d ip, 28 days): significantly reduced
overweight of mice on HFD [7, 15]: significantly reduced
total caloric intake ([7]; DIO mice, 10 mg/kg/d ip): ability to reduce
HFD-induced glucose intolerance [8]: completely reversed
HFD-induced hyperglycemia [8]: completely reversed

Second part, the molecule before the results:

SMILES: Cc1c(C(=O)NC2CC(C)(C)N([O])C(C)(C)C2)nn(-c2ccc(Cl)cc2Cl)c1-c1ccc(Cl)cc1 [TMP, 5-(4-chlorophenyl)-1-(2,4-dichlorophenyl)-4-methyl-N-(2,2,6,6-tetramethyl-1-oxo-1-piperidin-4-yl)-1H-pyrazole-3-carboxamide]
Ki (CB1 receptor [1]): 1.69 to 446 nM
activity profile / hyperactivity vs vehicle group (mice [2]): no significant hyperactivity

SMILES: CCCCCCCCCCCCCCCCCCNC(=O)c1nn(-c2ccc(Cl)cc2Cl)c(-c2ccc(Cl)cc2)c1C [BNS-002, 5-(4-chlorophenyl)-1-(2,4-dichlorophenyl)-4-methyl-N-octadecyl-1H-pyrazole-3-carboxamide]
increase in immobility induced by HU-210 (mice [10]): unaffected
Ki (CB1 receptor [1]; [12]): 4.96 nM
affinity for CB1 receptor (in words) (CB1 receptor [1]; radioligand displacement): retains high affinity and selectivity
HFD-induced hepatic steatosis (fat vacuoles in the liver) [3]: partially
functional profile by GTPγS binding (inverse agonism) (CB1 receptor [4]): inverse agonist
GTPγS binding in mouse brain membranes (CB1 receptor [4]; compound alone): reduces GTPγS binding
action of the potent CB1 receptor agonist HU-210 on GTPγS binding (CB1 receptor [4]; with HU-210): able to ameliorate
HFD-induced reduction in VO2 [6]: upregulate
HFD-induced reduction in fat oxidation [6]: upregulate
HFD-induced reduction in total energy expenditure [6]: upregulate
increased adiposity of mice on HFD ([7]; 10 mg/kg/d ip, 28 days): significantly reduced by rimonabant only
overweight of mice on HFD ([7]; 10 mg/kg/d ip, 28 days): significantly reduced by rimonabant only
body weight reduction ([7]; 7 days, BNS-002 15 mg/kg ip): no effect
overweight of mice on HFD [7, 15]: significantly reduced
brain levels [11]: reduced
brain penetrance [11]: markedly reduced
serum levels [11]: increased
HFD-induced glucose intolerance [8]: completely reversed
HFD-induced hyperglycemia [8]: completely reversed
HFD-induced kidney hyperfiltration ([9]; BNS-002): completely normalized

SMILES: Cc1c(C(=O)OC2CC(C)(C)N([O])C(C)(C)C2)nn(-c2ccc(Cl)cc2Cl)c1-c1ccc(Cl)cc1 [EST, 2,2,6,6-tetramethyl-1-piperidin-4-yl 5-(4-chlorophenyl)-1-(2,4-dichlorophenyl)-4-methyl-1H-pyrazole-3-carboxylate]
Ki (CB1 receptor [1]): 0.37 to 7.81 nM
activity profile / hyperactivity vs vehicle group (mice [2]): no significant hyperactivity

Source: patent US12473270B2, “CB1R receptor blockers with acyclic backbones” (YISSUM RESEARCH DEVELOPMENT COMPANY OF THE HEBREW …, priority 2019, dated 2025)
